Experimental data reported in patent publication EP1935986B1, “Luminogenic and fluorogenic compounds and methods to detect molecules or conditions” (priority 2005, dated 2006).

Legend:
[1] = biological target: T1, human recombinant monoamine oxidase A (MAO A) (Homo sapiens, UniProt P21397); assay: Two-step luminescent MAO assay with luciferin derivative; conditions: for RLUmax: fit of Tables 23-24 (TableCurve)
T1 sequence (P21397 1-527): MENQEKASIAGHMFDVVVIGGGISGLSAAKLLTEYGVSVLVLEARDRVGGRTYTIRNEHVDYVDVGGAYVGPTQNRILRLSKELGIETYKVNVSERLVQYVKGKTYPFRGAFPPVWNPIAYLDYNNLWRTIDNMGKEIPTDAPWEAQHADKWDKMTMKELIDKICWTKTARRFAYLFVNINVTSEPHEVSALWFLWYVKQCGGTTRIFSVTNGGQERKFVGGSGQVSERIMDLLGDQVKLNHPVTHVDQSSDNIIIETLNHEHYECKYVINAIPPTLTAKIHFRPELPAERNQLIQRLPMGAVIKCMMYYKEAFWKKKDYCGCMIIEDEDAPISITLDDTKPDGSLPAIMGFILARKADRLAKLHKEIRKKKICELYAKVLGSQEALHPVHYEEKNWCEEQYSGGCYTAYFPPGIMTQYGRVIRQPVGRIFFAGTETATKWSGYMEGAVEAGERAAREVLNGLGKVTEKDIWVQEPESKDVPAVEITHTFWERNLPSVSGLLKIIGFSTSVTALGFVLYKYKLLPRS

QuantiLum Luciferase = biological target: T2, QuantiLum Luciferase (Photinus pyralis, UniProt P08659); assay: Scaffolds: light emission of luciferin derivatives with QuantiLum luciferase alone, + Co A, + DTT, + Co A and DTT; type: biochemical, firefly
T2 construct: purchased Promega Corporation E170
Protocol: The DTT, Coenzyme A, and QuantiLum stock solutions are the same as those described herein.
This solution was diluted 1:1 with water to produce an enzyme solution labeled "No addition." This solution was diluted 1:1 with 400 mM DTT, pH 8.0 to produce a solution labeled +DTT. This solution was diluted 1:1 with 4 mM Coenzyme A to produce a solution labeled + Co A. Finally, this solution was diluted 1:1 with a solution having both 4 mM Coenzyme A and 400 mM DTT to produce a solution labeled +Co A & DTT.
50 µl samples of these solutions were placed in the wells of luminometer microtiter plates, row A to row G, respeutivly. Row H of the plates was given 50 µl of water.
Reactions in these plates were initiated by addition of 50 µl of solution containing QuantiLum luciferase using a 12 channel micropipette. The solutions added to the rows were: columns 1, 5, and 9 - no addition solution; columns 2, 6, and 10 - + Co A solution; columns 3, 7, and 11 + DTT solution, and; columns 4, 8, and 12 - + Co A and DTT solution. After addition of the enzyme solution to the first row on every plate, a timer was started. After addition of the enzyme solution to the last row on each plate, the plate was sealed and read on a Veritas luminometer.

[2] = biological target: T3, human recombinant monoamine oxidase B (MAO B) (Homo sapiens, UniProt P27338); assay: Two-step luminescent MAO assay with luciferin derivative; type: biochemical; conditions: fit of Tables 23-24 (TableCurve)
T3 construct: purchased Sigma Chemical Company M-7441; host or cells: baculovirus infected insect cells (microsomes)
T3 sequence (P27338 1-520): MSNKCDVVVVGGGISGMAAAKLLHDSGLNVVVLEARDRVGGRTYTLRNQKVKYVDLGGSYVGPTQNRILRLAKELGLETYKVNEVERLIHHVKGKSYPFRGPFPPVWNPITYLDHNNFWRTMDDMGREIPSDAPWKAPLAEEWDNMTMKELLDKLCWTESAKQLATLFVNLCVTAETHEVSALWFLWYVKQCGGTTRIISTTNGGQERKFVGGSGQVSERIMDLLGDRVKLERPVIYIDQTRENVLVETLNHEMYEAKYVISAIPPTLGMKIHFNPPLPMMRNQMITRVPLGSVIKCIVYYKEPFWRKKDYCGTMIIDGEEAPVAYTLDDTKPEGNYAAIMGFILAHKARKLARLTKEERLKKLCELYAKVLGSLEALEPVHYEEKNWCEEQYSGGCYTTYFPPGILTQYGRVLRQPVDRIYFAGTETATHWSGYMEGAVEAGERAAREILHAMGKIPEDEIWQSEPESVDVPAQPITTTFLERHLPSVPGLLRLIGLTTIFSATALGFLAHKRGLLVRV

luciferase = assay: No-enzyme control: activity of luciferase towards the luciferin derivative (background luminescence); conditions: wild type microsomes instead of FMO 3
Protocol: The reactions (Table 1) were assembled by first adding the water and 1 M BisTris solutions in individual 0.5 ml microfuge tubes, then adding the other components except for the GST #3 solution. Finally, the GST #3 (Figure 12) solution was added to the reactions, the resulting solution was mixed, and the time of addition noted. […]
The GST #3 addition was performed last and the solutions were mixed immediately after addition of GST #3. […] After mixing, the light produced by the solution was measured using a Turner TD 20/20 luminometer.
After assembly, the enzyme stock solutions were diluted 1:10 into 10 mM HEPES, pH 7.5 and the following additions were made to the reactions.
A 5 µl sample of the luciferol DMF solution was added to each of the reactions above and a timer was started upon the addition of the first luciferol/DMF solution to reaction 1. All reactions were kept at room temperature.
After incubating 5 minutes at room temperature, the light produced by these samples was measured using a Turner TD 20 luminometer.
To initiate the conversions, 5 µl of luciferol solution was added to reactions […], 6-9, and 11-15, and 10 µl of luciferol was added to reactions 5 and 10 and the tubes mixed after that addition. Immediately after luciferol addition to reaction 1, a timer was started and the time of luciferol addition to the other tubes noted. After mixing, reaction 11-15 were placed at 37°C.
After incubating 10 minutes at room temperature, the light produced by these samples was read using a Turner TD 20 luminometer (Table 18).
To initiate Step 1, 45 µl of enzyme and buffer were added to each well.
Solution A and Solution B are components of the NADPH Regeneration System (V9510, Promega Corp., Madison WI). […] Solution B contains 40 units/ml glucose-6-phosphate dehydrogenase in 5 mM citrate pH 5.5.

[3] = tested on: human recombinant flavin-containing monooxygenase 3 (FMO 3); assay: Two-step luminescent FMO assay with luciferin derivative; type: biochemical

T2 sequence (P08659 whole entry): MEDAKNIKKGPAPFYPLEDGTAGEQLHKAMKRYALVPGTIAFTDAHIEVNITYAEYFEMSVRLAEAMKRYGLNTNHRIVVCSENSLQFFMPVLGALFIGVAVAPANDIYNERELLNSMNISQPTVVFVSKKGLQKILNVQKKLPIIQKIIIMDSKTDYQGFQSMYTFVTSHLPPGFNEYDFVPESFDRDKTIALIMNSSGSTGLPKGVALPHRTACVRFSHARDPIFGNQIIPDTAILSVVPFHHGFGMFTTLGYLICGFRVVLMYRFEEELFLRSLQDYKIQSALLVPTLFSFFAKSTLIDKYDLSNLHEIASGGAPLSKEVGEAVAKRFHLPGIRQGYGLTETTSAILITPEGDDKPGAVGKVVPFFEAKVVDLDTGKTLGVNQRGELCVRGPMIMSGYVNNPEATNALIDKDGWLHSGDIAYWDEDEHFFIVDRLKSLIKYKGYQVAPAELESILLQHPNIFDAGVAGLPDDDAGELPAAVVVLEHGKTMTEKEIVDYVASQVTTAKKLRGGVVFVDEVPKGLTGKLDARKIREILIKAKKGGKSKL

SMILES: NCCCOc1ccc2nc(C3=N[C@@H](C(=O)O)CS3)sc2c1 [MAO-3, 6-Aminopropoxyluciferin]
- RLUmax [1]: 210
- light emission values (QuantiLum Luciferase; Derivative Conc. 1.07, Alone): 94583
- light emission values (QuantiLum Luciferase; Derivative Conc. 1.07, Co A): 122510
- light emission values (QuantiLum Luciferase; Derivative Conc. 1.07, Co A + DTT): 52637
- light emission values (QuantiLum Luciferase; Derivative Conc. 1.07, DTT): 111682
- light emission values (QuantiLum Luciferase; Derivative Conc. 3.13, Alone): 131633
- light emission values (QuantiLum Luciferase; Derivative Conc. 3.13, Co A): 176814
- light emission values (QuantiLum Luciferase; Derivative Conc. 3.13, Co A + DTT): 171233
- light emission values (QuantiLum Luciferase; Derivative Conc. 3.13, DTT): 200074
- light emission values (QuantiLum Luciferase; Derivative Conc. 6.25, Alone): 201597
- light emission values (QuantiLum Luciferase; Derivative Conc. 6.25, Co A): 321914
- light emission values (QuantiLum Luciferase; Derivative Conc. 6.25, Co A + DTT): 82531
- light emission values (QuantiLum Luciferase; Derivative Conc. 6.25, DTT): 348398
- light emission values (QuantiLum Luciferase; Derivative Conc. 12.5, Alone): 252130
- light emission values (QuantiLum Luciferase; Derivative Conc. 12.5, Co A): 467021
- light emission values (QuantiLum Luciferase; Derivative Conc. 12.5, Co A + DTT): 509896
- light emission values (QuantiLum Luciferase; Derivative Conc. 12.5, DTT): 525765
- light emission values (QuantiLum Luciferase; Derivative Conc. 25, Alone): 272608
- light emission values (QuantiLum Luciferase; Derivative Conc. 25, Co A): 588881
- light emission values (QuantiLum Luciferase; Derivative Conc. 25, DTT): 733675
- light emission values (QuantiLum Luciferase; Derivative Conc. 50, Alone): 179585
- light emission values (QuantiLum Luciferase; Derivative Conc. 50, Co A): 444494
- light emission values (QuantiLum Luciferase; Derivative Conc. 50, Co A + DTT): 865209
- light emission values (QuantiLum Luciferase; Derivative Conc. 50, DTT): 868903
- light emission values (QuantiLum Luciferase; Derivative Conc. 100, Alone): 348013
- light emission values (QuantiLum Luciferase; Derivative Conc. 100, Co A): 741882
- light emission values (QuantiLum Luciferase; Derivative Conc. 100, Co A + DTT): 1019425
- light emission values (QuantiLum Luciferase; Derivative Conc. 100, DTT): 994617
- RLUmax [2]: 660

SMILES: CNCCCOc1ccc2nc(C3=N[C@@H](C(=O)O)CS3)ccc2c1 [MAO-7, 6-(3-methylaminopropoxy)quinolinyl-lucifexin]
- relative light units, control (luciferase; [MAO-7] 43 µM): 1043 RLUs
- relative light units, control (luciferase; [MAO-7] 86 µM): 1585 RLUs
- relative light units, control (luciferase; [MAO-7] 258 µM): 3592 RLUs
- relative light units, control (luciferase; [MAO-7] 344 µM): 4486 RLUs
- relative light units, control (luciferase; [MAO-7] 516 µM): 6137 RLUs
- relative light units, control (luciferase; [MAO-7] 688 µM): 7213 RLUs
- RLUmax [1]: 750
- substrate specificity as indicated by the ratio RLUmax/Km ([1]; result in words): more specific substrate for MAO A
- RLUmax [2]: 48
- relative light units, FMO 3 ([3]; [MAO-7] 43 µM): 8220 RLUs
- relative light units, net FMO 3 ([3]; [MAO-7] 43 µM): 7177 RLUs
- relative light units, FMO 3 ([3]; [MAO-7] 86 µM): 13646 RLUs
- relative light units, net FMO 3 ([3]; [MAO-7] 86 µM): 12061 RLUs
- relative light units, FMO 3 ([3]; [MAO-7] 258 µM): 28987 RLUs
- relative light units, net FMO 3 ([3]; [MAO-7] 258 µM): 25395 RLUs
- relative light units, FMO 3 ([3]; [MAO-7] 344 µM): 34036 RLUs
- relative light units, net FMO 3 ([3]; [MAO-7] 344 µM): 29550 RLUs
- relative light units, FMO 3 ([3]; [MAO-7] 516 µM): 40329 RLUs
- relative light units, net FMO 3 ([3]; [MAO-7] 516 µM): 34192 RLUs
- relative light units, FMO 3 ([3]; [MAO-7] 688 µM): 42707 RLUs
- relative light units, net FMO 3 ([3]; [MAO-7] 688 µM): 35494 RLUs
- Km ([3]; fit of Table 33, CHES pH 9.5): 200 ± 20 µM
